Legend:
[1] = test system: S. aureus DSM 20231; test: Bliss interaction score (quartile over a dose matrix) (fitness difference); higher = more antagonism (negative = synergy)
How it was run: (§1)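 The Bliss score takes observed fitness and subtracts the expected fitness, calculated as a product of single-drug fitness values. Those single-drug values were inferred from the combination data. Fitness is OD595 at entry into stationary phase divided by the plate's robust no-drug mean, capped at 1, and the score is summarised by quartiles across technical, biological and donor/recipient replicates.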

[2] = test system: S. aureus Newman; test: as above
How it was run: as §1

[3] = test system: S. pneumoniae D39V; test: as above
How it was run: as §1

[4] = test system: B. subtilis 168; test: as above
How it was run: as §1

[5] = test system: S. aureus DSM 20231; test: fitness (endpoint OD595 vs no drug) (fraction); higher = more growth
How it was run: (§2)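 At 37 °C, bacteria in TSB, LB Lennox or CY were grown in 384-well plates from a starting OD595 of 0.01. OD595 was measured every 30 min for 14 h, with the first reading used as background. Fitness is the optical density at the switch to stationary phase as a fraction of the robust mean of no-drug control wells, capped at 1.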

[6] = test system: S. aureus Newman; test: as above
How it was run: as §2

[7] = test system: S. pneumoniae D39V; test: as above
How it was run: as §2
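Throughout, for Bliss interaction score (quartile over a dose matrix): first quartile when negative (synergy) and third quartile when positive (antagonism).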
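Throughout, for fitness (endpoint OD595 vs no drug): OD595 on entry to stationary phase over no-drug wells; at most 1.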

CC1(C)S[C@@H]2[C@H](NC(=O)[C@H](N)c3ccc(O)cc3)C(=O)N2[C@H]1C(=O)O [Amoxicillin] + COc1ccc(C[C@H](N)C(=O)N[C@H]2[C@@H](O)[C@H](n3cnc4c(N(C)C)ncnc43)O[C@@H]2CO)cc1 [Puromycin]
Conditions	Bliss interaction score
[1]	0.0606
[2]	0.0595
[3]	0.277
[4]	0.0627

Conditions	fitness
[5], first compound 0.0625 µg/mL, partner 0.39 µg/mL	0.53
[5], first compound 0.0625 µg/mL, partner 0.78 µg/mL	0.566
[5], first compound 0.0625 µg/mL, partner 1.56 µg/mL	0.517
[5], first compound 0.125 µg/mL, partner 0.39 µg/mL	0.397
[5], first compound 0.125 µg/mL, partner 0.78 µg/mL	0.448
[5], first compound 0.25 µg/mL, partner 0.39 µg/mL	0.199
[5], first compound 0.25 µg/mL, partner 0.78 µg/mL	0.133
[5], first compound 0.25 µg/mL, partner 1.56 µg/mL	0.0396
[6], first compound 0.0625 µg/mL, partner 0.39 µg/mL	0.874
[6], first compound 0.0625 µg/mL, partner 0.78 µg/mL	0.879
[6], first compound 0.0625 µg/mL, partner 1.56 µg/mL	0.9
[6], first compound 0.125 µg/mL, partner 0.39 µg/mL	0.904
[6], first compound 0.125 µg/mL, partner 0.78 µg/mL	0.882
[6], first compound 0.125 µg/mL, partner 1.56 µg/mL	0.899
[6], first compound 0.25 µg/mL, partner 0.39 µg/mL	0.813
[7], first compound 0.0008 µg/mL, partner 1 µg/mL	0.965
[7], first compound 0.0008 µg/mL, partner 2 µg/mL	0.953
[7], first compound 0.0008 µg/mL, partner 4 µg/mL	0.88
[7], first compound 0.0015 µg/mL, partner 1 µg/mL	≥ 1
[7], first compound 0.0015 µg/mL, partner 2 µg/mL	≥ 1
[7], first compound 0.0015 µg/mL, partner 4 µg/mL	0.954
[7], first compound 0.003 µg/mL, partner 1 µg/mL	≥ 1
[7], first compound 0.003 µg/mL, partner 2 µg/mL	0.962
[7], first compound 0.003 µg/mL, partner 4 µg/mL	0.891

one replicate
Conditions	fitness
[5], first compound 0.0625 µg/mL, partner 3.12 µg/mL	0.58
[5], first compound 0.0625 µg/mL, partner 6.24 µg/mL	0.293
[5], first compound 0.125 µg/mL, partner 3.12 µg/mL	0.417
[5], first compound 0.125 µg/mL, partner 6.24 µg/mL	0.0695
[5], first compound 0.25 µg/mL, partner 3.12 µg/mL	0.0126
[5], first compound 0.25 µg/mL, partner 6.24 µg/mL	0.0079
[5], first compound 0.5 µg/mL, partner 0.39 µg/mL	0.0239
[5], first compound 0.5 µg/mL, partner 0.78 µg/mL	0.0124
[5], first compound 0.5 µg/mL, partner 1.56 µg/mL	0.0417
[7], first compound 0.006 µg/mL, partner 1 µg/mL	0.617
[7], first compound 0.006 µg/mL, partner 2 µg/mL	0.685
[7], first compound 0.006 µg/mL, partner 4 µg/mL	0.612

CC1(C)S[C@@H]2[C@H](NC(=O)[C@H](N)c3ccc(O)cc3)C(=O)N2[C@H]1C(=O)O [Amoxicillin] + COc1cccc2c1C(=O)c1c(O)c3c(c(O)c1C2=O)C[C@@](O)(C(=O)CO)C[C@@H]3O[C@H]1C[C@H](N)[C@H](O)[C@H](C)O1 [Doxorubicin]
Conditions	Bliss interaction score
[1]	0.0943
[2]	-0.0449
[3]	-0.071
[4]	0.0583

Conditions	fitness
[5], first compound 0.0625 µg/mL, partner 0.625 µg/mL	0.541
[5], first compound 0.0625 µg/mL, partner 1.25 µg/mL	0.511
[5], first compound 0.0625 µg/mL, partner 2.5 µg/mL	0.493
[5], first compound 0.125 µg/mL, partner 0.625 µg/mL	0.443
[5], first compound 0.125 µg/mL, partner 1.25 µg/mL	0.423
[5], first compound 0.125 µg/mL, partner 2.5 µg/mL	0.461
[5], first compound 0.25 µg/mL, partner 0.625 µg/mL	0.187
[5], first compound 0.5 µg/mL, partner 0.625 µg/mL	0.0064
[5], first compound 0.5 µg/mL, partner 1.25 µg/mL	0
[5], first compound 0.5 µg/mL, partner 2.5 µg/mL	0.012
[6], first compound 0.0625 µg/mL, partner 0.625 µg/mL	0.756
[6], first compound 0.0625 µg/mL, partner 1.25 µg/mL	0.738
[6], first compound 0.0625 µg/mL, partner 2.5 µg/mL	0.686
[6], first compound 0.125 µg/mL, partner 0.625 µg/mL	0.774
[6], first compound 0.125 µg/mL, partner 1.25 µg/mL	0.742
[6], first compound 0.125 µg/mL, partner 2.5 µg/mL	0.79
[6], first compound 0.25 µg/mL, partner 0.625 µg/mL	0.729
[6], first compound 0.25 µg/mL, partner 1.25 µg/mL	0.735
[6], first compound 0.25 µg/mL, partner 2.5 µg/mL	0.712
[7], first compound 0.0008 µg/mL, partner 0.25 µg/mL	0.961
[7], first compound 0.0008 µg/mL, partner 0.5 µg/mL	0.941
[7], first compound 0.0008 µg/mL, partner 1 µg/mL	0.882
[7], first compound 0.0015 µg/mL, partner 0.25 µg/mL	0.892
[7], first compound 0.0015 µg/mL, partner 0.5 µg/mL	0.855
[7], first compound 0.0015 µg/mL, partner 1 µg/mL	0.921
[7], first compound 0.003 µg/mL, partner 0.25 µg/mL	0.838
[7], first compound 0.003 µg/mL, partner 0.5 µg/mL	0.837
[7], first compound 0.003 µg/mL, partner 1 µg/mL	0.788

[7], first compound 0.006 µg/mL, one replicate
Conditions	fitness
partner 0.25 µg/mL	0.317
partner 0.5 µg/mL	0.314
partner 1 µg/mL	0.399

CC1(C)S[C@@H]2[C@H](NC(=O)[C@H](N)c3ccc(O)cc3)C(=O)N2[C@H]1C(=O)O [Amoxicillin] + C[C@@H]1O[C@@H]1P(=O)(O)O [Fosfomycin]
Conditions	Bliss interaction score
[1]	-0.169
[2]	0.0512
[3]	-0.113
[4]	0.102

Conditions	fitness
[5], first compound 0.0625 µg/mL, partner 0.781 µg/mL	0.469
[5], first compound 0.0625 µg/mL, partner 1.562 µg/mL	0.369
[5], first compound 0.0625 µg/mL, partner 3.124 µg/mL	0.0511
[5], first compound 0.125 µg/mL, partner 0.781 µg/mL	0.278
[5], first compound 0.125 µg/mL, partner 1.562 µg/mL	0.0267
[5], first compound 0.125 µg/mL, partner 3.124 µg/mL	0.0388
[5], first compound 0.25 µg/mL, partner 0.781 µg/mL	0.0416
[5], first compound 0.25 µg/mL, partner 1.562 µg/mL	0.0638
[5], first compound 0.25 µg/mL, partner 3.124 µg/mL	0.038
[6], first compound 0.0625 µg/mL, partner 0.781 µg/mL	0.612
[6], first compound 0.0625 µg/mL, partner 1.562 µg/mL	0.506
[6], first compound 0.125 µg/mL, partner 0.781 µg/mL	0.597
[6], first compound 0.125 µg/mL, partner 3.124 µg/mL	0.185
[6], first compound 0.25 µg/mL, partner 0.781 µg/mL	0.567
[6], first compound 0.25 µg/mL, partner 3.124 µg/mL	0.096
[7], first compound 0.0008 µg/mL, partner 1.25 µg/mL	0.938
[7], first compound 0.0008 µg/mL, partner 2.5 µg/mL	0.893
[7], first compound 0.0008 µg/mL, partner 5 µg/mL	0.803
[7], first compound 0.0015 µg/mL, partner 1.25 µg/mL	0.914
[7], first compound 0.0015 µg/mL, partner 2.5 µg/mL	0.887
[7], first compound 0.0015 µg/mL, partner 5 µg/mL	0.672
[7], first compound 0.003 µg/mL, partner 1.25 µg/mL	0.877
[7], first compound 0.003 µg/mL, partner 2.5 µg/mL	0.834
[7], first compound 0.003 µg/mL, partner 5 µg/mL	0.531

fitness, one replicate
Conditions	partner 0.781 µg/mL	partner 1.25 µg/mL	partner 1.562 µg/mL	partner 2.5 µg/mL	partner 3.124 µg/mL	partner 5 µg/mL
[5], first compound 0.5 µg/mL	0.0154	–	0.0129	–	0.0057	–
[7], first compound 0.006 µg/mL	–	0.339	–	0.279	–	0.146

CCCCCCCCCC(=O)N[C@@H](Cc1c[nH]c2ccccc12)C(=O)N[C@H](CC(N)=O)C(=O)N[C@@H](CC(=O)O)C(=O)N[C@@H]1C(=O)NCC(=O)N[C@@H](CCCN)C(=O)N[C@@H](CC(=O)O)C(=O)N[C@H](C)C(=O)N[C@@H](CC(=O)O)C(=O)NCC(=O)N[C@H](CO)C(=O)N[C@@H]([C@H](C)CC(=O)O)C(=O)N[C@@H](CC(=O)c2ccccc2N)C(=O)O[C@@H]1C [Daptomycin] + CCCCCCCCCC(=O)N[C@@H]1[C@H]([C@@H]([C@H](O[C@H]1OC2=C3C=C4C=C2OC5=C(C=C(C=C5)[C@H]([C@H]6C(=O)N[C@@H](C7=C(C(=CC(=C7)O)OC8[C@H]([C@H]([C@@H]([C@H](O8)CO)O)O)O)C9=C(C=CC(=C9)[C@H](C(=O)N6)NC(=O)[C@@H]4NC(=O)[C@@H]1C2=CC(=CC(=C2)OC2=C(C=CC(=C2)[C@H](C(=O)N[C@H](CC2=CC(=C(O3)C=C2)Cl)C(=O)N1)N)O)O)O)C(=O)O)O[C@H]1[C@@H]([C@H]([C@@H]([C@H](O1)CO)O)O)NC(=O)C)Cl)CO)O)O [Teicoplanin]
main component drawn
Conditions	Bliss interaction score
[1]	0.0282
[2]	0.0337
[3]	0.0818
[4]	0.0936

fitness, main component drawn
Conditions	first compound 0.125 µg/mL	first compound 0.25 µg/mL	first compound 0.5 µg/mL	first compound 1 µg/mL	first compound 2 µg/mL
[5], partner 0.1562 µg/mL	0.976	0.977	≥ 1	0.949	≥ 1
[5], partner 0.3125 µg/mL	≥ 1	≥ 1	≥ 1	≥ 1	0.991
[5], partner 0.625 µg/mL	≥ 1	≥ 1	≥ 1	≥ 1	≥ 1
[6], partner 0.1562 µg/mL	0.998	0.992	≥ 1	–	–
[6], partner 0.3125 µg/mL	≥ 1	≥ 1	≥ 1	–	–
[6], partner 0.625 µg/mL	≥ 1	≥ 1	≥ 1	–	–

fitness, [6], one replicate, main component drawn
Conditions	first compound 0.5 µg/mL	first compound 1 µg/mL	first compound 2 µg/mL
partner 0.62 µg/mL	0.791	0.785	0.924
partner 1.24 µg/mL	0.746	0.753	0.765
partner 2.48 µg/mL	0.461	0.471	0.501

CCN(CC)CCOC(=O)c1ccc(N)cc1 [Procaine] + CCCCCCCCCC(=O)N[C@@H]1[C@H]([C@@H]([C@H](O[C@H]1OC2=C3C=C4C=C2OC5=C(C=C(C=C5)[C@H]([C@H]6C(=O)N[C@@H](C7=C(C(=CC(=C7)O)OC8[C@H]([C@H]([C@@H]([C@H](O8)CO)O)O)O)C9=C(C=CC(=C9)[C@H](C(=O)N6)NC(=O)[C@@H]4NC(=O)[C@@H]1C2=CC(=CC(=C2)OC2=C(C=CC(=C2)[C@H](C(=O)N[C@H](CC2=CC(=C(O3)C=C2)Cl)C(=O)N1)N)O)O)O)C(=O)O)O[C@H]1[C@@H]([C@H]([C@@H]([C@H](O1)CO)O)O)NC(=O)C)Cl)CO)O)O [Teicoplanin]
main component drawn
Conditions	Bliss interaction score
[1]	0.044
[2]	0.0323
[3]	-0.113
[4]	-0.0776

fitness, main component drawn
Conditions	first compound 85.5 µg/mL	first compound 171 µg/mL	first compound 342 µg/mL
[5], partner 0.1562 µg/mL	≥ 1	≥ 1	0.992
[5], partner 0.3125 µg/mL	0.975	≥ 1	≥ 1
[5], partner 0.625 µg/mL	≥ 1	≥ 1	≥ 1
[6], partner 0.1562 µg/mL	0.996	≥ 1	0.997
[6], partner 0.3125 µg/mL	0.975	0.981	0.963
[6], partner 0.625 µg/mL	0.83	0.898	0.889

fitness, [6], one replicate, main component drawn
Conditions	first compound 85.5 µg/mL	first compound 171 µg/mL	first compound 342 µg/mL
partner 0.62 µg/mL	0.774	0.738	0.765
partner 1.24 µg/mL	0.785	0.705	0.726
partner 2.48 µg/mL	0.407	0.496	0.478

— the supplement of paper PMC10627819
